Experiments:
YKG-1 = test: cells; type: functional, cell-based; conditions: Homo sapiens;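 also: cell growth inhibition, read out with a viability assay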
Description: SANGER: Inhibition of human YKG-1 cell growth in a cell viability assay.

SW756 = test: cells; type: functional, cell-based; conditions: Homo sapiens;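 also: growth inhibition of human SW756 cells, read out with a cell viability assay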
Description: SANGER: Inhibition of human SW756 cell growth in a cell viability assay.

ME-180 = test: cells; type: functional, cell-based; conditions: Homo sapiens;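 also: cell viability assay measuring growth inhibition of ME-180 cells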
Description: SANGER: Inhibition of human ME-180 cell growth in a cell viability assay.

M059J = test: cells; type: functional, cell-based; conditions: Homo sapiens;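 also: growth inhibition of M059J cells, read out with a cell viability assay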
Description: SANGER: Inhibition of human M059J cell growth in a cell viability assay.

Hs-578T = test: cells; type: functional, cell-based; conditions: Homo sapiens
Description: SANGER: Inhibition of human Hs-578-T cell growth in a cell viability assay.

NY = test: cells; type: functional, cell-based; conditions: Homo sapiens
Description: SANGER: Inhibition of human NY cell growth in a cell viability assay.

LC-1F = test: cells; type: functional, cell-based, Homo sapiens; conditions: Homo sapiens, LC-1F;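 also: growth inhibition of human LC-1F cells, read out with a cell viability assay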
Description: SANGER: Inhibition of human LC-1F cell growth in a cell viability assay.

NCI-H2141 = test: cells; type: functional, cell-based, Homo sapiens; conditions: Homo sapiens, NCI-H2141;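 also: growth inhibition of human NCI-H2141 cells, read out with a cell viability assay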
Description: SANGER: Inhibition of human NCI-H2141 cell growth in a cell viability assay.

PF-382 = test: cells; type: functional, cell-based, Homo sapiens; conditions: Homo sapiens, PF-382
Description: SANGER: Inhibition of human PF-382 cell growth in a cell viability assay.

HSC-4 = test: cells; type: functional, cell-based; conditions: Homo sapiens;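 also: growth inhibition of human HSC-4 cells, read out with a cell viability assay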
Description: SANGER: Inhibition of human HSC-4 cell growth in a cell viability assay.

HEC-1 = test: cells; type: functional, cell-based; conditions: Homo sapiens;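 also: growth inhibition of the cell line, read out with a cell viability assay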
Description: SANGER: Inhibition of human HEC-1 cell growth in a cell viability assay.

RT-112 = test: cells; type: functional, cell-based; conditions: Homo sapiens
Description: SANGER: Inhibition of human RT-112 cell growth in a cell viability assay.

HCC 2998 = test: cells; type: functional, cell-based; conditions: Homo sapiens;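 also: growth inhibition of human HCC2998 cells, measured with a cell viability read-out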
Description: SANGER: Inhibition of human HCC2998 cell growth in a cell viability assay.

SCC-3 = test: cells; type: functional, cell-based, Homo sapiens; conditions: Homo sapiens, SCC-3;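 also: cell viability assay measuring inhibition of SCC-3 cell growth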
Description: SANGER: Inhibition of human SCC-3 cell growth in a cell viability assay.

NCI-H1882 = test: cells; type: functional, cell-based, Homo sapiens; conditions: Homo sapiens, NCI-H1882;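 also: growth inhibition of the cell line, determined with a viability assay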
Description: SANGER: Inhibition of human NCI-H1882 cell growth in a cell viability assay.

NCI-H661 = test: cells; type: functional, cell-based; conditions: Homo sapiens;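 also: cell viability assay read-out, IC50 being the concentration that inhibits growth of the cells by half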
Description: SANGER: Inhibition of human NCI-H661 cell growth in a cell viability assay.

TUR = test: cells; type: functional, cell-based, Homo sapiens; conditions: Homo sapiens, TUR;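 also: growth inhibition of human TUR cells, read out with a cell viability assay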
Description: SANGER: Inhibition of human TUR cell growth in a cell viability assay.

C3A = test: cells; type: functional, cell-based; conditions: Homo sapiens;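 also: growth inhibition of C3A human cells, quantified with a cell viability readout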
Description: SANGER: Inhibition of human C3A cell growth in a cell viability assay.

NCI-H460 = test: cells; type: functional, cell-based; conditions: Homo sapiens;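 also: cell viability assay scoring growth inhibition of human NCI-H460 cells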
Description: SANGER: Inhibition of human NCI-H460 cell growth in a cell viability assay.

LOUCY = test: cells; type: functional, cell-based, Homo sapiens; conditions: Homo sapiens, LOUCY;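 also: growth inhibition of human LOUCY cells, read out with a cell viability assay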
Description: SANGER: Inhibition of human LOUCY cell growth in a cell viability assay.

SNU-423 = test: cells; type: functional, cell-based; conditions: Homo sapiens
Description: SANGER: Inhibition of human SNU-423 cell growth in a cell viability assay.

SK-MEL-30 = test: cells; type: functional, cell-based; conditions: Homo sapiens;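 also: growth inhibition of SK-MEL-30 cells, determined with a cell viability assay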
Description: SANGER: Inhibition of human SK-MEL-30 cell growth in a cell viability assay.

HT-29 = test: cells; type: functional, cell-based; conditions: Homo sapiens;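 also: growth inhibition of human HT-29 cells, read out by a cell viability assay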
Description: SANGER: Inhibition of human HT-29 cell growth in a cell viability assay.

KOSC-2 = test: cells; type: functional, cell-based; conditions: Homo sapiens;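 also: growth inhibition of KOSC-2 cells, read out by a cell viability assay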
Description: SANGER: Inhibition of human KOSC-2 cell growth in a cell viability assay.

HT55 = test: cells; type: functional, cell-based; conditions: Homo sapiens;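 also: cell viability readout measuring growth inhibition of human HT55 cells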
Description: SANGER: Inhibition of human HT55 cell growth in a cell viability assay.

SIMA = test: cells; type: functional, cell-based, Homo sapiens; conditions: Homo sapiens, SIMA;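 also: growth inhibition of SIMA cells, measured with a cell viability readout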
Description: SANGER: Inhibition of human SIMA cell growth in a cell viability assay.

T-24 = test: cells; type: functional, cell-based; conditions: Homo sapiens;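 also: growth inhibition of T-24 cells, read out with a cell viability assay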
Description: SANGER: Inhibition of human T-24 cell growth in a cell viability assay.

Huh-7 = test: cells; type: functional, cell-based; conditions: Homo sapiens;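 also: HuH-7 cell growth inhibition, read out with a cell viability assay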
Description: SANGER: Inhibition of human HuH-7 cell growth in a cell viability assay.

BHT-101 = test: cells; type: functional, cell-based; conditions: Homo sapiens
Description: SANGER: Inhibition of human BHT-101 cell growth in a cell viability assay.

COLO-680N = test: cells; type: functional, cell-based; conditions: Homo sapiens;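 also: cell viability assay used to measure inhibition of COLO-680N cell growth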
Description: SANGER: Inhibition of human COLO-680N cell growth in a cell viability assay.

WM-115 = test: cells; type: functional, cell-based; conditions: Homo sapiens
Description: SANGER: Inhibition of human WM-115 cell growth in a cell viability assay.

UACC-893 = test: cells; type: functional, cell-based; conditions: Homo sapiens
Description: SANGER: Inhibition of human UACC-893 cell growth in a cell viability assay.

SKG-IIIa = test: cells; type: functional, cell-based; conditions: Homo sapiens;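 also: cell growth inhibition, read out with a cell viability assay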
Description: SANGER: Inhibition of human SKG-IIIa cell growth in a cell viability assay.

ECC4 = test: cells; type: functional, cell-based, Homo sapiens; conditions: Homo sapiens, ECC4;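 also: growth inhibition of ECC4 cells, read out with a cell viability assay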
Description: SANGER: Inhibition of human ECC4 cell growth in a cell viability assay.

AN3-CA = test: cells; type: functional, cell-based; conditions: Homo sapiens;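 also: growth inhibition of human AN3-CA cells measured by a cell viability assay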
Description: SANGER: Inhibition of human AN3-CA cell growth in a cell viability assay.

HCC1569 = test: cells; type: functional, cell-based; conditions: Homo sapiens;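 also: growth inhibition of human HCC1569 cells, read out with a cell viability assay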
Description: SANGER: Inhibition of human HCC1569 cell growth in a cell viability assay.

LC4-1 = test: cells; type: functional, cell-based, Homo sapiens; conditions: Homo sapiens, LC4-1;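 also: growth inhibition of LC4-1 cells, read out with a cell viability assay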
Description: SANGER: Inhibition of human LC4-1 cell growth in a cell viability assay.

CHP-126 = test: cells; type: functional, cell-based, Homo sapiens; conditions: Homo sapiens, CHP-126
Description: SANGER: Inhibition of human CHP-126 cell growth in a cell viability assay.

NCI-H1993 = test: cells; type: functional, cell-based; conditions: Homo sapiens;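 also: growth inhibition of the cancer cell line, assessed with a cell viability assay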
Description: SANGER: Inhibition of human NCI-H1993 cell growth in a cell viability assay.

CAL-27 = test: cells; type: functional, cell-based; conditions: Homo sapiens;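 also: Viability-based readout, IC50 reflecting inhibition of CAL-27 cell growth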
Description: SANGER: Inhibition of human CAL-27 cell growth in a cell viability assay.

KYSE-410 = test: cells; type: functional, cell-based; conditions: Homo sapiens;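 also: growth inhibition of KYSE-410 cells, measured through a cell viability readout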
Description: SANGER: Inhibition of human KYSE-410 cell growth in a cell viability assay.

SW1710 = test: cells; type: functional, cell-based; conditions: Homo sapiens;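 also: growth inhibition of SW1710 cells, determined with a cell viability assay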
Description: SANGER: Inhibition of human SW1710 cell growth in a cell viability assay.

TCC-SUP = test: cells; type: functional, cell-based; conditions: Homo sapiens;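 also: growth inhibition of TCC-SUP cells, read out with a cell viability assay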
Description: SANGER: Inhibition of human TCCSUP cell growth in a cell viability assay.

CP66-MEL = test: cells; type: functional, cell-based; conditions: Homo sapiens;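 also: growth inhibition of CP66-MEL cells determined in a cell viability assay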
Description: SANGER: Inhibition of human CP66-MEL cell growth in a cell viability assay.

EB-3 = test: cells; type: functional, cell-based, Homo sapiens; conditions: Homo sapiens, EB-3;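 also: human EB-3 cells, growth inhibition read out via a cell viability assay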
Description: SANGER: Inhibition of human EB-3 cell growth in a cell viability assay.

NCI-H1623 = test: cells; type: functional, cell-based; conditions: Homo sapiens;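 also: cell viability assay used as the read-out for growth inhibition of NCI-H1623 cells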
Description: SANGER: Inhibition of human NCI-H1623 cell growth in a cell viability assay.

MDA-MB-231 = test: cells; type: functional, cell-based; conditions: Homo sapiens
Description: SANGER: Inhibition of human MDA-MB-231 cell growth in a cell viability assay.

MDA-MB-415 = test: cells; type: functional, cell-based; conditions: Homo sapiens
ST486 = test: SANGER: Inhibition of human ST486 cell growth in a cell viability assay.; type: functional, cell-based; conditions: Homo sapiens, ST486
NB12 = test: cells; type: functional, cell-based; conditions: Homo sapiens;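 also: growth inhibition of human NB12 cells, read out by a cell viability assay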
Description: SANGER: Inhibition of human NB12 cell growth in a cell viability assay.

BXPC-3 = test: cells; type: functional, cell-based; conditions: Homo sapiens;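 also: growth inhibition of human BxPC-3 cells, read out by a cell viability assay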
Description: SANGER: Inhibition of human BxPC-3 cell growth in a cell viability assay.

UO-31 = test: cells; type: functional, cell-based; conditions: Homo sapiens
Description: SANGER: Inhibition of human U031 cell growth in a cell viability assay.

NCI-H650 = test: cells; type: functional, cell-based; conditions: Homo sapiens;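 also: growth inhibition of NCI-H650 cells, read out by a viability assay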
Description: SANGER: Inhibition of human NCI-H650 cell growth in a cell viability assay.

CPC-N = test: cells; type: functional, cell-based, Homo sapiens; conditions: Homo sapiens, CPC-N;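 also: growth inhibition of CPC-N cells, with a cell viability assay as the readout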
Description: SANGER: Inhibition of human CPC-N cell growth in a cell viability assay.

JEG-3 = test: cells; type: functional, cell-based; conditions: Homo sapiens;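 also: growth inhibition of human JEG-3 cells, read out with a cell viability assay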
Description: SANGER: Inhibition of human JEG-3 cell growth in a cell viability assay.

NCI-H2196 = test: cells; type: functional, cell-based, Homo sapiens; conditions: Homo sapiens, NCI-H2196; read-out: IC50;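 also: cell viability assay used as the readout of growth inhibition in NCI-H2196 cells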
Description: SANGER: Inhibition of human NCI-H2196 cell growth in a cell viability assay.

Panc1005 = test: cells; type: functional, cell-based; conditions: Homo sapiens;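 also: growth inhibition of human PANC-10-05 cells, measured by a cell viability assay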
Description: SANGER: Inhibition of human PANC-10-05 cell growth in a cell viability assay.

SCLC-21H = test: cells; type: functional, cell-based, Homo sapiens; conditions: Homo sapiens, SCLC-21H;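 also: growth inhibition of cultured human SCLC-21H cells, read out with a cell viability assay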
Description: SANGER: Inhibition of human SCLC-21H cell growth in a cell viability assay.

UACC-62 = test: cells; type: functional, cell-based; conditions: Homo sapiens;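 also: growth inhibition of human UACC-62 cells, read out by a cell viability assay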
Description: SANGER: Inhibition of human UACC-62 cell growth in a cell viability assay.

Structure (SMILES): COc1ccc(-c2cc3nccn3c(Nc3ncccc3C(N)=O)n2)cc1OC
- IC50 (YKG-1): 2.65 µM
- IC50 (SW756): > 8 µM
- IC50 (ME-180): > 8 µM
- IC50 (M059J): 2.84 µM
- IC50 (Hs-578T): > 8 µM
- IC50 (NY): > 8 µM
- IC50 (LC-1F): > 8 µM
- IC50 (NCI-H2141): > 8 µM
- IC50 (PF-382): 2.41 µM
- IC50 (HSC-4): > 8 µM
- IC50 (HEC-1): > 8 µM
- IC50 (RT-112): > 8 µM
- IC50 (HCC 2998): 5.55 µM
- IC50 (SCC-3): 7.5 µM
- IC50 (NCI-H1882): > 8 µM
- IC50 (NCI-H661): > 8 µM
- IC50 (TUR): 2.57 µM
- IC50 (C3A): 6.53 µM
- IC50 (NCI-H460): 2.46 µM
- IC50 (LOUCY): 3.65 µM
- IC50 (SNU-423): > 8 µM
- IC50 (SK-MEL-30): > 8 µM
- IC50 (HT-29): 2.81 µM
- IC50 (KOSC-2): > 8 µM
- IC50 (HT55): > 8 µM
- IC50 (SIMA): 7.18 µM
- IC50 (T-24): > 8 µM
- IC50 (Huh-7): > 8 µM
- IC50 (BHT-101): > 8 µM
- IC50 (COLO-680N): > 8 µM
- IC50 (WM-115): > 8 µM
- IC50 (UACC-893): > 8 µM
- IC50 (SKG-IIIa): > 8 µM
- IC50 (ECC4): > 8 µM
- IC50 (AN3-CA): 4.66 µM
- IC50 (HCC1569): > 8 µM
- IC50 (LC4-1): 5.98 µM
- IC50 (CHP-126): 6.5 µM
- IC50 (NCI-H1993): > 8 µM
- IC50 (CAL-27): 4.59 µM
- IC50 (KYSE-410): 7.22 µM
- IC50 (SW1710): 1.66 µM
- IC50 (TCC-SUP): > 8 µM
- IC50 (CP66-MEL): > 8 µM
- IC50 (EB-3): > 8 µM
- IC50 (NCI-H1623): > 8 µM
- IC50 (MDA-MB-231): > 8 µM
- IC50 (MDA-MB-415): > 8 µM
- IC50 (ST486): 0.576 µM
- IC50 (NB12): > 8 µM
- IC50 (BXPC-3): 2.86 µM
- IC50 (UO-31): 6.71 µM
- IC50 (NCI-H650): > 8 µM
- IC50 (CPC-N): > 8 µM
- IC50 (JEG-3): > 8 µM
- IC50 (NCI-H2196): > 8 µM
- IC50 (Panc1005): 4.15 µM
- IC50 (SCLC-21H): > 8 µM
- IC50 (UACC-62): > 8 µM

Structure (SMILES): OC[C@H](Cc1ccccc1)Nc1nc(Oc2ccc3c(c2)CCC3)nc2c1ncn2Cc1ccc(-c2ccccc2)cc1
- IC50 (YKG-1): 7.11 µM
- IC50 (SW756): > 10.2 µM
- IC50 (ME-180): > 10.2 µM
- IC50 (M059J): > 10.2 µM
- IC50 (Hs-578T): > 10.2 µM
- IC50 (NY): > 10.2 µM
- IC50 (LC-1F): > 10.2 µM
- IC50 (NCI-H2141): > 10.2 µM
- IC50 (PF-382): > 10.2 µM
- IC50 (HSC-4): > 10.2 µM
- IC50 (HEC-1): > 10.2 µM
- IC50 (RT-112): > 10.2 µM
- IC50 (HCC 2998): > 10.2 µM
- IC50 (SCC-3): > 10.2 µM
- IC50 (NCI-H1882): > 10.2 µM
- IC50 (NCI-H661): > 10.2 µM
- IC50 (TUR): > 10.2 µM
- IC50 (C3A): > 10.2 µM
- IC50 (NCI-H460): 2.73 µM
- IC50 (LOUCY): > 10.2 µM
- IC50 (SNU-423): > 10.2 µM
- IC50 (SK-MEL-30): 8.89 µM
- IC50 (HT-29): 8.45 µM
- IC50 (KOSC-2): > 10.2 µM
- IC50 (HT55): > 10.2 µM
- IC50 (SIMA): > 10.2 µM
- IC50 (T-24): > 10.2 µM
- IC50 (Huh-7): > 10.2 µM
- IC50 (BHT-101): > 10.2 µM
- IC50 (COLO-680N): > 10.2 µM
- IC50 (WM-115): > 10.2 µM
- IC50 (UACC-893): > 10.2 µM
- IC50 (SKG-IIIa): > 10.2 µM
- IC50 (ECC4): > 10.2 µM
- IC50 (AN3-CA): > 10.2 µM
- IC50 (HCC1569): > 10.2 µM
- IC50 (LC4-1): > 10.2 µM
- IC50 (CHP-126): > 10.2 µM
- IC50 (NCI-H1993): > 10.2 µM
- IC50 (CAL-27): > 10.2 µM
- IC50 (KYSE-410): 6.97 µM
- IC50 (SW1710): 1.43 µM
- IC50 (TCC-SUP): > 10.2 µM
- IC50 (CP66-MEL): > 10.2 µM
- IC50 (EB-3): > 10.2 µM
- IC50 (NCI-H1623): > 10.2 µM
- IC50 (MDA-MB-231): > 10.2 µM
- IC50 (MDA-MB-415): > 10.2 µM
- IC50 (ST486): > 10.2 µM
- IC50 (NB12): > 10.2 µM
- IC50 (BXPC-3): > 10.2 µM
- IC50 (UO-31): > 10.2 µM
- IC50 (NCI-H650): 7.39 µM
- IC50 (CPC-N): > 10.2 µM
- IC50 (JEG-3): > 10.2 µM
- IC50 (NCI-H2196): > 10.2 µM
- IC50 (Panc1005): > 10.2 µM
- IC50 (SCLC-21H): > 10.2 µM
- IC50 (UACC-62): > 10.2 µM
